Reference: patent EP1508334B1, “Water soluble extract from plant of solanum genus and the preparation process thereof, and pharmaceutical composition containing the water soluble extract” (G & E Herbal Biotechnology Co., Ltd., priority 2003, dated 2005)

Columns and labels:
[1] = tested on: human PLC/PRF/5 hepatoma cells; conditions: cited from earlier work
[2] = tested on: Biomphalaria glabrata; conditions: cited from earlier work
[3] = tested on: Phoma medicaginis; conditions: cited from earlier work
[4] = tested on: Manduca sexta; conditions: cited from earlier work
[5] = tested on: Hep3B; conditions: cited from earlier work
[6] = Dissolution in water (applicant's observations); type: physicochemical; conditions: for direct dissolution in water: compounds purified by HPLC from the water-soluble extract; for concentration at which precipitated: in water after being first dissolved in DMSO; for dissolution in water: without DMSO pre-treatment
[7] = tested on: Rhizoctomia solani; conditions: cited from earlier work
[8] = tested on: Lymnaea cubensis; conditions: cited from earlier work
[9] = tested on: TNF receptor I; conditions: cited from earlier work
[10] = tested on: normal skin fibroblast cells; conditions: cited from earlier work
[11] = tested on: Tribolium castaneum; conditions: cited from earlier work
[12] = tested on: H441; assay: MTS tetrazolium salt cytotoxicity assay; type: cell-based, human; conditions: different test concentrations / various dosages, 12 hrs, Fig. 8 and Fig. 12
Text: In order to determine whether the water-soluble extract obtained from the plant of Solanum genus according to this invention has anti-cancer activity, the principal cancer cells of Hep3B, H441, and MCF-7 were used as analytic targets, in which Hep3B and H441 were purchased from American Type Culture Collection (ATCC, P.O. Box 1549, Manassas, VA 20108 USA), and MCF-7 was purchased from Food Industry Research and Development Institute (331 Shih-Pin Road, Hsinchu, 300 Taiwan R.O.C.).
Hep3B was incubated in Dulbecco's Modified Eagle's medium (DMEM), while H441 and MCF-7 were incubated in RPMI-1640, both of the media containing 10% fetal bovine serum and 40 mg/L gentamycin.
The cytotoxicity of cancer cells was determined using tetrazolium salt assay (MTS, Mosmann. T., 1983, Immmunol. Meth., 65, 55-63), which was conducted for the colorimetric determination of cell viability according to the manufacturer's procedures (CellTiter 96™ AQ, Promega, Madison, USA).
Cells were seeded at 1x10^4 cells/well in a 96-well plate and incubated in 5% CO2 incubator at 37°C for at least 16 hrs. […] Upon completion of the reaction, absorbency in each well was determined at 490 nm by using ELISA reader 312e, Bio-TEK. Each value was expressed as means ± SD from three experiments.
Cytotoxicity was determined by MTS tetrazolium salt assay disclosed in Pharmacological assay 1. […]

[13] = tested on: JTC-26; conditions: cited from earlier work
[14] = tested on: Trypanosoma cruzi; conditions: cited from earlier work

For `C[C@@H]1CC[C@@]2(NC1)O[C@H]1C[C@H]3[C@@H]4CC=C5C[C@@H](O[C@@H]6O[C@H](CO)[C@@H](O[C@@H]7O[C@@H](C)[C@H](O)[C@@H](O)[C@H]7O)[C@H](O)[C@H]6O[C@@H]6O[C@@H](C)[C@H](O)[C@@H](O)[C@H]6O)CC[C@]5(C)[C@H]4CC[C@]3(C)[C@H]1[C@@H]2C` [solamargine], the “growth of human PLC/PRF/5 hepatoma cells” value [1] is given as “inhibits the growth”, the “inhibiting growth of Biomphalaria glabrata” value [2] is given as “capable of inhibiting growth” and the “inhibiting growth of Phoma medicaginis” value [3] is given as “capable of inhibiting growth”. The “inhibiting growth of Manduca sexta” value [4] was “capable of inhibiting growth”, the “death of cells by apoptosis pathway” value [5] was “increases death of cells” and the “direct dissolution in water” value [6] was “directly dissolved in water”. The “concentration at which precipitated” value [6] was “more than 5 mg/ml”, the dissolution in water [6] was “could not dissolve in water” and the “inhibiting growth of Rhizoctomia solani” value [7] was “capable of inhibiting growth”. The “inhibiting growth of Lymnaea cubensis” value [8] was “capable of inhibiting growth”, the “gene expression of TNF receptor I” value [9] was “up-regulated” and the “death of cells by apoptosis pathway” value [10] was “increases death of cells”. The “inhibiting growth of Tribolium castaneum” value [11] was “capable of inhibiting growth”, the “inhibiting the growth of H441” value [12] was “effectively inhibited” and the “growth of JTC-26” value [13] was “inhibits the growth”. The “inhibiting growth of Trypanosoma cruzi” value [14] was “capable of inhibiting growth”.

For `C[C@@H]1CC[C@@]2(NC1)O[C@H]1C[C@H]3[C@@H]4CC=C5C[C@@H](O[C@@H]6O[C@H](CO)[C@H](O)[C@H](O[C@@H]7O[C@H](CO)[C@@H](O)[C@H](O)[C@H]7O)[C@H]6O[C@@H]6O[C@@H](C)[C@H](O)[C@@H](O)[C@H]6O)CC[C@]5(C)[C@H]4CC[C@]3(C)[C@H]1[C@@H]2C` [solasonine], the “direct dissolution in water” value [6] was “directly dissolved in water”, the “concentration at which precipitated” value [6] was “more than 5 mg/ml” and the dissolution in water [6] was “could not dissolve in water”. The “inhibiting the growth of H441” value [12] was “effectively inhibited”.
